Tested on: Jurkat cells
Experiment: (r) Cell cytotoxicity assay
Type: cell-based, human
Conditions: 24 hours
Procedure: 1×10^5 Jurkat cells (immortalised human T lymphocytes) are added to the appropriate number of wells of a 96 well plate in 100 μL of media (RPMI supplemented with 10% foetal bovine serum). 1 μL of DMSO control (final concentration 1.0% v/v) or test compound (final concentration 20, 5 or 1 μg/mL) is added to the wells and incubated at 37° C., 5% CO2. After 24 hours, the plate is centrifuged at 1200 rpm for 3 minutes and the supernatant discarded. Cells are then resuspended in 150 μL (final concentration 7.5 μg/mL) of propidium iodide (PI) in PBS and incubated at 37° C., 5% CO2 for 15 minutes. After 15 minutes, cells are analysed by flow cytometry (BD accuri) using the FL3 window. The % viability is calculated as the % of cells that are PI negative in the test wells normalised to the DMSO control.

SMILES	% Viability at 1 μg/mL [%]	% Viability at 5 μg/mL [%]	% Viability at 20 μg/mL [%]
COc1cc(Nc2nccc(Oc3ccc(NC(=O)Nc4cc(C(C)(C)C)cc(NS(C)(=O)=O)c4OC)c4ccccc34)n2)cc(OC)c1C(=O)NCCN1CCN(C)CC1 [17(az), 4-((4-((4-(3-(5-(tert-Butyl)-2-methoxy-3-(methylsulfonamido)phenyl)ureido)naphthalen-1-yl)oxy)pyrimidin-2-yl)amino)-2,6-dimethoxy-N-(2-(4-methylpiperazin-1-yl)ethyl)benzamide]	105.4	93.1	4.5
COc1cc(Nc2nccc(Oc3ccc(NC(=O)Nc4cc(C(C)(C)C)cc(NS(C)(=O)=O)c4OC)c4ccccc34)n2)ccc1C(=O)NCCOCCOCCO [17(by), 4-((4-((4-(3-(5-(tert-Butyl)-2-methoxy-3-(methylsulfonamido)phenyl)ureido)naphthalen-1-yl)oxy)pyrimidin-2-yl)amino)-N-(2-(2-(2-hydroxyethoxy)ethoxy)ethyl)-2-methoxybenzamide]	102.4	81.5	1.6
COc1cc(Nc2cc(Oc3ccc(NC(=O)Nc4cc(C(C)(C)C)cc(NS(C)(=O)=O)c4OC)c4ccccc34)ccn2)ccc1C(=O)N[C@H]1C(O)O[C@H](CO)[C@@H](O)[C@@H]1O (stereo partly drawn) [17(br), 4-((4-((4-(3-(5-(tert-Butyl)-2-methoxy-3-(methylsulfonamido)phenyl)ureido)naphthalen-1-yl)oxy)pyridin-2-yl)amino)-2-methoxy-N-((3R,4R,5S,6R)-2,4,5-trihydroxy-6-(hydroxymethyl)tetrahydro-2H-pyran-3-yl)benzamide]	91.8	90.7	79.2
COc1cc(Nc2cc(Oc3ccc(NC(=O)Nc4cc(C(C)(C)C)cc(NS(C)(=O)=O)c4OC)c4ccccc34)ccn2)cc(OC)c1C(=O)NCCC1CCN(C)CC1 [17(at), 4-((4-((4-(3-(5-(tert-Butyl)-2-methoxy-3-(methylsulfonamido)phenyl)ureido)naphthalen-1-yl)oxy)pyridin-2-yl)amino)-2,6-dimethoxy-N-(2-(1-methylpiperidin-4-yl)ethyl)benzamide]	95.2	93.2	86.6
COc1cc(Nc2cc(Oc3ccc(NC(=O)Nc4cc(C(C)(C)C)cc(NS(C)(=O)=O)c4OC)c4ccccc34)ccn2)ccc1C(=O)NC[C@H](O)[C@@H](O)[C@H](O)[C@H](O)CO [17(bw), 4-((4-((4-(3-(5-(tert-Butyl)-2-methoxy-3-(methylsulfonamido)phenyl)ureido)naphthalen-1-yl)oxy)pyridin-2-yl)amino)-2-methoxy-N-((2S,3R,4R,5R)-2,3,4,5,6-pentahydroxyhexyl) benzamide]	94.5	96.2	92.4
COc1cc(Nc2cc(Oc3ccc(NC(=O)Nc4cc(C(C)(C)C)cc(C(N)=O)c4OC)c4ccccc34)ccn2)ccc1C(=O)O [Example 3, 4-((4-((4-(3-(5-(tert-Butyl)-3-carbamoyl-2-methoxyphenyl)ureido)naphthalen-1-yl)oxy)pyridin-2-yl)amino)-2-methoxybenzoic acid]	93.4	95.9	91.9
COc1cc(Nc2cc(Oc3ccc(NC(=O)Nc4cc(C(C)(C)C)cc(NS(C)(=O)=O)c4OC)c4ccccc34)ccn2)cc(OC)c1C(=O)NCCCN1CCN(C)CC1 [17(au), 4-((4-((4-(3-(5-(tert-Butyl)-2-methoxy-3-(methylsulfonamido)phenyl)ureido)naphthalen-1-yl)oxy)pyridin-2-yl)amino)-2,6-dimethoxy-N-(3-(4-methylpiperazin-1-yl)propyl)benzamide]	94.0	91.8	80.6
COc1cc(Nc2cc(Oc3ccc(NC(=O)Nc4cc(C(C)(C)C)cc(NS(C)(=O)=O)c4OC)c4ccccc34)ccn2)ccc1C(=O)NCCN1CCN(C(=O)CCC(=O)O)CC1 [17(ck), 4-(4-(2-(4-((4-((4-(3-(5-(tert-Butyl)-2-methoxy-3-(methylsulfonamido)phenyl)ureido)-naphthalen-1-yl)oxy)pyridin-2-yl)amino)-2-methoxybenzamido)ethyl)piperazin-1-yl)-4-oxobutanoic acid]	96.1	96.1	95.5
COc1cc(Nc2nccc(Oc3ccc(NC(=O)Nc4cc(C(C)(C)C)cc(NS(C)(=O)=O)c4OC)c4ccccc34)n2)ccc1C(=O)NCCCN1CCN(C)CC1 [17(ap), 4-((4-((4-(3-(5-(tert-Butyl)-2-methoxy-3-(methylsulfonamido)phenyl)ureido)naphthalen-1-yl)oxy)pyrimidin-2-yl)amino)-2-methoxy-N-(3-(4-methylpiperazin-1-yl)propyl)benzamide]	97.8	40.1	0.6
COc1cc(Nc2cc(Oc3ccc(NC(=O)Nc4cc(C(C)(C)C)cc(NS(C)(=O)=O)c4OC)c4ccccc34)ccn2)ccc1C(=O)NCCOCCOCCC(=O)O [17(x), 3-[2-[2-[[4-[[4-[[4-[[5-tert-butyl-3-(methanesulfonamido)-2-methoxyphenyl]carbamoyl-amino]-1-naphthyl]oxy]-2-pyridyl]amino]-2-methoxy-benzoyl]amino]ethoxy]ethoxy]propanoic acid]	95.4	94.2	38.9
CCN1CCN(CCNC(=O)c2ccc(Nc3cc(Oc4ccc(NC(=O)Nc5cc(C(C)(C)C)cc(NS(C)(=O)=O)c5OC)c5ccccc45)ccn3)cc2OC)CC1 [17(be), 4-((4-((4-(3-(5-(tert-Butyl)-2-methoxy-3-(methylsulfonamido)phenyl)ureido)naphthalen-1-yl)oxy)pyridin-2-yl)amino)-N-(2-(4-ethylpiperazin-1-yl)ethyl)-2-methoxybenzamide]	92.4	0.7	0.5
COc1cc(Nc2cc(Oc3ccc(NC(=O)Nc4cc(C(C)(C)C)cc(NS(C)(=O)=O)c4OC)c4ccccc34)ccn2)ccc1C(=O)N(C)CCN1CCN(C)CC1 [17(bh), 4-((4-((4-(3-(5-(tert-Butyl)-2-methoxy-3-(methylsulfonamido)phenyl)ureido)naphthalen-1-yl)oxy)pyridin-2-yl)amino)-2-methoxy-N-methyl-N-(2-(4-methylpiperazin-1-yl)ethyl)benzamide]	99.5	67.8	0.6
COc1c(NC(=O)Nc2ccc(Oc3ccnc(Nc4ccc(C(=O)NCCN5CCN(C)CC5)c(N(C)C)c4)c3)c3ccccc23)cc(C(C)(C)C)cc1NS(C)(=O)=O [17(bq), 4-((4-((4-(3-(5-(tert-Butyl)-2-methoxy-3-(methylsulfonamido)phenyl)ureido)naphthalen-1-yl)oxy)pyridin-2-yl)amino)-2-(dimethylamino)-N-(2-(4-methylpiperazin-1-yl)ethyl)benzamide]	87.2	55.3	2.0
COc1cc(Nc2cc(Oc3ccc(NC(=O)Nc4cc(C(C)(C)C)cc(NS(C)(=O)=O)c4OC)c4ccccc34)ccn2)cc(OC)c1C(=O)NC1CCN(C)CC1 [17(bz), 4-((4-((4-(3-(5-(tert-Butyl)-2-methoxy-3-(methylsulfonamido)phenyl)ureido)naphthalen-1-yl)oxy)pyridin-2-yl)amino)-2,6-dimethoxy-N-(1-methylpiperidin-4-yl)benzamide]	93.6	92.7	64.1
COc1c(NC(=O)Nc2ccc(Oc3ccnc(Nc4ccc(C(=O)O)c(N(C)C)c4)n3)c3ccccc23)cc(C(C)(C)C)cc1NS(C)(=O)=O [17(bc), 4-((4-((4-(3-(5-(tert-Butyl)-2-methoxy-3-(methylsulfonamido)phenyl)ureido)naphthalen-1-yl)oxy)pyrimidin-2-yl)amino)-2-(dimethylamino)benzoic acid]	93.9	89.2	10.8
COc1cc(Nc2cc(Oc3ccc(NC(=O)Nc4cc(C(C)(C)C)cc(NS(C)(=O)=O)c4OC)c4ccccc34)ccn2)ccc1C(=O)NCCC1(O)CCN(C)CC1 [17(bg), 4-((4-((4-(3-(5-(tert-Butyl)-2-methoxy-3-(methylsulfonamido)phenyl)ureido)naphthalen-1-yl)oxy)pyridin-2-yl)amino)-N-(2-(4-hydroxy-1-methylpiperidin-4-yl)ethyl)-2-methoxy benzamide]	86.5	60.0	0.3
